# Test system: patients with acute heart failure (AHF)
# Test: Patient-reported dyspnea (7-point Likert Scale, 100-mm VAS), Pre-RELAX-AHF trial
# Format: in vivo, human
# Details: for average improvement in dyspnea VAS over the 5 days: corresponds to AUC to Day 5; for average change in dyspnea VAS over the 14 days: corresponds to AUC to Day 14; for Dyspnea AUC Change from baseline to Day 5 (VAS; mm*hr) / Dyspnea AUC Change from baseline to Day 14 (VAS; mm*hr): mean ± SD
# Method: Study Procedures. The study was approved by the relevant ethics committees, institutional review hoards and regulatory authorities, and conducted under the International Conference on Harmonization Good Clinical Practice guidelines. All patients provided informed written consent prior to participation. […] The placebo used for the study was the same solution as the diluent used to prepare the 100 μg/kg/day dose. The randomization ratio was 3:2:2:2:2, respectively, Relaxin (Corthera, San Mateo, Calif.) was manufactured using recombinant techniques and was identical to the naturally-occurring peptide hormone. By protocol, the study drug infusion was to be terminated if the patient's SBP was reduced to <100 mmHg or by >40 mmHg compared to baseline in two successive measurements, 15 minutes apart. Investigators were not prohibited from utilizing any standard medication, thought necessary to treat patients enrolled in the study, including additional vasodilators, following a 4-hour washout period during which time IV vasodilators, IV pure inotropes and meals were withheld, hemodynamic, renal, and clinical responses to 48 hours of study drug infusion were assessed.
# Study Endpoints. […] 4.) Length of initial hospital stay.
# Dyspnea Responses. Results are presented via the Visual Analog Score (VAS) and the Likert Score. The VAS score measures a characteristic of attitude that ranges across a continuum of values, for example, the amount of discomfort an AHF patient feels ranges across a continuum from none to an extreme amount of discomfort and/or pain including dyspnea, hypertension, high blood pressure, arrhythmia and reduced renal blood flow. From the patient's perspective this spectrum appears continuous, which the VAS captures. Operationally a VAS is usually a horizontal line, 100 mm in length, anchored by word descriptors at each end (e.g., no discomfort on one end and severe discomfort on the other end). The patients marked on the line the point that they fell represented their perception of their current state. The VAS score is determined by measuring in millimeters from the left hand end of the line to the point that the patient marks (Wewers et al., Research in Nursing and Health 13:227-236, 1990).
# The Likert Score is a unidimensional sealing method known in the art, wherein the set of scale items are rated on a numerical (herein 7-point) Disagree-Agree response scale. Each patient was asked to rate each item on the response scale. The final score for the respondents on the scale is the sum of their ratings for all of the items.
# [1] = 30 mcg/kg/d IV 48 h, listed as relaxin
substance,measurement,setting,value
Relaxin,"percent moderate or marked improvement in dyspnea (Likert), sustained over 14 days","30 μg/kg/day, AHF patients with SBP greater than the median, FIG. 7",about 90%
same,"improvement in dyspnea within 6, 12 and 24 hours of administration","30 μg/kg/day, FIG. 12",statistically significant improvement in dyspnea
same,"% moderately/markedly better dyspnea at 6, 12 and 24 hrs (Likert)",10 mcg/kg/d IV 48 h,27.5%
same,average improvement in dyspnea VAS over the 5 days,10 mcg/kg/d IV 48 h,21 mm
same,average change in dyspnea VAS over the 14 days,10 mcg/kg/d IV 48 h,10 mm
same,Dyspnea AUC Change from baseline to Day 5 (VAS; mm*hr),10 mcg/kg/d IV 48 h,2500 ± 2908 mm*hr
same,Dyspnea AUC Change from baseline to Day 14 (VAS; mm*hr),10 mcg/kg/d IV 48 h,6366 ± 10078 mm*hr
same,"% moderately/markedly better dyspnea at 6, 12 and 24 hrs (Likert)",30 mcg/kg/d IV 48 h,40.5%
same,average improvement in dyspnea VAS over the 5 days,30 mcg/kg/d IV 48 h,22 mm
same,average change in dyspnea VAS over the 14 days,30 mcg/kg/d IV 48 h,25 mm
same,"% moderately/markedly better dyspnea at 6, 12 and 24 hrs (Likert)",[1],40.5%
same,Dyspnea AUC Change from baseline to Day 5 (VAS; mm*hr),30 mcg/kg/d IV 48 h,2567 ± 2898 mm*hr
same,Dyspnea AUC Change from baseline to Day 14 (VAS; mm*hr),30 mcg/kg/d IV 48 h,8214 ± 8712 mm*hr
same,Dyspnea AUC Change from baseline to Day 5 (VAS; mm*hr),[1],2567±2898 mm*hr
same,Dyspnea AUC Change from baseline to Day 14 (VAS; mm*hr),[1],8214±8712 mm*hr
same,"% moderately/markedly better dyspnea at 6, 12 and 24 hrs (Likert)",100 mcg/kg/d IV 48 h,13.5%
same,average improvement in dyspnea VAS over the 5 days,100 mcg/kg/d IV 48 h,21 mm
same,average change in dyspnea VAS over the 14 days,100 mcg/kg/d IV 48 h,25 mm
same,Dyspnea AUC Change from baseline to Day 5 (VAS; mm*hr),100 mcg/kg/d IV 48 h,2486 ± 2865 mm*hr
same,Dyspnea AUC Change from baseline to Day 14 (VAS; mm*hr),100 mcg/kg/d IV 48 h,8227 ± 9707 mm*hr
same,"% moderately/markedly better dyspnea at 6, 12 and 24 hrs (Likert)",250 mcg/kg/d IV 48 h,22.4%
same,average improvement in dyspnea VAS over the 5 days,250 mcg/kg/d IV 48 h,18 mm
same,average change in dyspnea VAS over the 14 days,250 mcg/kg/d IV 48 h,21 mm
same,Dyspnea AUC Change from baseline to Day 5 (VAS; mm*hr),250 mcg/kg/d IV 48 h,2155 ± 2338 mm*hr
same,Dyspnea AUC Change from baseline to Day 14 (VAS; mm*hr),250 mcg/kg/d IV 48 h,6856 ± 7923 mm*hr
same,time at which a beneficial effect on dyspnea was first seen,"AHF patients with CrCl less than the median, FIG. 8",6 h
same,time at which a beneficial effect on dyspnea was first seen,"AHF patients with SBP greater than the median, FIG. 7",6 h
same,onset of improvement in dyspnea,all relaxin-treated AHF patients,≤ 6 h
same,serum concentration at which relaxin was shown to be fully effective,see FIG. 6,3 to 6 ng/mL

# Reference: patent US9205132B2, “Method of lowering mortality” (CORTHERA, INC., priority 2008, dated 2015)
